Reference: ChEMBL document CHEMBL1156097, “Design, synthesis and bioevaluation of novel maleamic amino acid ester conjugates of 3,5-bisarylmethylene-4-piperidones as cytostatic agents” (Bioorg Med Chem Lett, 2009)
Calls of active or inactive are those of the source. The rule behind the calls is not given here.

What was measured:
[1] = Cytotoxicity against human Molt4/C8 cells; type: functional, cell-based; settings: MOLT-4
L1210 = assay: Cytotoxicity against mouse L1210 cells; type: functional, cell-based
[2] = biological target: DNA topoisomerase 2-alpha (Homo sapiens) (UniProt P11388); assay: Inhibition of human DNA topoisomerase 2alpha-mediated relaxation of supercoiled pRYG DNA at 10 uM after 30 mins by […]
Chain of DNA topoisomerase 2-alpha (Homo sapiens) (P11388 whole entry): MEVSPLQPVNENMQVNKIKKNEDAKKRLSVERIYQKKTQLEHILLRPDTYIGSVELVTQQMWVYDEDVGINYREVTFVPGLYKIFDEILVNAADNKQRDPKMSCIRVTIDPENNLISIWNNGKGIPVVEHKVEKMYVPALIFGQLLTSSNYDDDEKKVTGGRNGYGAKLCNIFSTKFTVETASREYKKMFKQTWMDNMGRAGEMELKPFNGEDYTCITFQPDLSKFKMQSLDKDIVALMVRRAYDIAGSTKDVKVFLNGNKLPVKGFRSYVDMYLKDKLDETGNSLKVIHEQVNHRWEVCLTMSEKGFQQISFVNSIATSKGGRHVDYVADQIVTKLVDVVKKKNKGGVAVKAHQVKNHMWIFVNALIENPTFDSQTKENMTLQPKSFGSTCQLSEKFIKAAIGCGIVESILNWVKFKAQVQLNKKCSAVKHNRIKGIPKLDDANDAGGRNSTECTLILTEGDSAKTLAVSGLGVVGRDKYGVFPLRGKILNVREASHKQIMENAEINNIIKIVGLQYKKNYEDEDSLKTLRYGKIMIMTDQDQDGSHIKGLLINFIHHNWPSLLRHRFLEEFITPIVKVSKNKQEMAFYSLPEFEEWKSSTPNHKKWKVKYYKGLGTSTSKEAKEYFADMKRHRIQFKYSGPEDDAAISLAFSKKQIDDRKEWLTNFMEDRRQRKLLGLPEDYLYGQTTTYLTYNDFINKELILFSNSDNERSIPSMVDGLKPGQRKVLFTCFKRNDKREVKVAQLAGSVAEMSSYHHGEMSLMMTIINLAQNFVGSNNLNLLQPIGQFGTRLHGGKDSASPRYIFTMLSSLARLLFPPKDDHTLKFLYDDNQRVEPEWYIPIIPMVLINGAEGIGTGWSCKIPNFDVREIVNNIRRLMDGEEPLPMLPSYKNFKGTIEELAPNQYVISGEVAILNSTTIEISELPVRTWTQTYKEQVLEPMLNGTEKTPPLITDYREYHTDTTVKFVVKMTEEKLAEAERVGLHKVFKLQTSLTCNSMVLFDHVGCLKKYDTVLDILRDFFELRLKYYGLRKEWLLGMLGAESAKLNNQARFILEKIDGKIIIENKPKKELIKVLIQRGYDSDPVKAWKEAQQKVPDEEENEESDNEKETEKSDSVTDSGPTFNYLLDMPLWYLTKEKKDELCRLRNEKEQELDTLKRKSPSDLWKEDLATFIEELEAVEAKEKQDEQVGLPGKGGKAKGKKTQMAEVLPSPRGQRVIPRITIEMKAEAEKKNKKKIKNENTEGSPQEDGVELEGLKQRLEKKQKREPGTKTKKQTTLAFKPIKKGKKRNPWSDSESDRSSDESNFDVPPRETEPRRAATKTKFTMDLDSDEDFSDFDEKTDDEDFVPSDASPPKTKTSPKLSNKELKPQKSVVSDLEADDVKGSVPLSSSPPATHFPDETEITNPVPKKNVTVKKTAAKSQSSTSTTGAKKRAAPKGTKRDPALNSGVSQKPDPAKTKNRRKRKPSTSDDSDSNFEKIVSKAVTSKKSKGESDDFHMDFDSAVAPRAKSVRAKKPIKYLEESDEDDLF

CCRF-CEM = assay: Cytotoxicity against human CEM cells; type: functional, cell-based
[3] = biological target: DNA topoisomerase 2-alpha (Homo sapiens) (UniProt P11388); assay: Inhibition of human DNA topoisomerase 2alpha-mediated relaxation of supercoiled pRYG DNA at 25 uM after 30 mins by […]
[4] = biological target: DNA topoisomerase 2-alpha (Homo sapiens) (UniProt P11388); assay: Inhibition of human DNA topoisomerase 2alpha-mediated relaxation of supercoiled pRYG DNA at 100 uM after 30 mins by agarose gel electrophoresis
[5] = biological target: DNA topoisomerase 2-alpha (Homo sapiens) (UniProt P11388); assay: Inhibition of human DNA topoisomerase 2alpha-mediated relaxation of supercoiled pRYG DNA at 50 uM after 30 mins by […]
Mus musculus [6] = assay: Neurotoxicity in mouse at 100 mg/kg, ip after 0.5 hrs; type: toxicity, organism-based; design: dose 100 mg/kg, route intraperitoneal; settings: in vivo
Mus musculus [7] = assay: Neurotoxicity in mouse at 300 mg/kg, ip after 4 hrs; type: toxicity, organism-based; design: dose 300 mg/kg, route intraperitoneal; settings: in vivo
Mus musculus [8] = assay: Neurotoxicity in mouse at 30 mg/kg, ip after 4 hrs; type: toxicity, organism-based; design: dose 30 mg/kg, route intraperitoneal; settings: in vivo
Mus musculus [9] = assay: Neurotoxicity in mouse at 300 mg/kg, ip after 0.5 hrs; type: toxicity, organism-based; design: dose 300 mg/kg, route intraperitoneal; settings: in vivo
Mus musculus [10] = assay: Neurotoxicity in mouse at 100 mg/kg, ip after 4 hrs; type: toxicity, organism-based; design: dose 100 mg/kg, route intraperitoneal; settings: in vivo

Activity [2]	Activity [3]	Activity [4]	Activity [5]	Compound	IC50 [1] [nM]	IC50 (L1210) [nM]	IC50 (CCRF-CEM) [nM]	Activity (Mus musculus [6])	Activity (Mus musculus [7])	Activity (Mus musculus [8])	Activity (Mus musculus [9])	Activity (Mus musculus [10])
inactive	inactive	Active	inactive	CCOC(=O)[C@H](CC(C)C)NC(=O)/C=C\C(=O)N1C/C(=C\c2ccc([N+](=O)[O-])cc2)C(=O)/C(=C/c2ccc([N+](=O)[O-])cc2)C1	210	240	170	Non-toxic	–	–	–	–
Active	Active	Active	Active	CCOC(=O)[C@H](CCSC)NC(=O)/C=C\C(=O)N1C/C(=C\c2ccc([N+](=O)[O-])cc2)C(=O)/C(=C/c2ccc([N+](=O)[O-])cc2)C1	250	580	190	–	–	–	–	–
Active	Active	Active	Active	CCOC(=O)CNC(=O)/C=C\C(=O)N1C/C(=C\c2ccc([N+](=O)[O-])cc2)C(=O)/C(=C/c2ccc([N+](=O)[O-])cc2)C1	230	840	110	–	Non-toxic	Non-toxic	Non-toxic	Non-toxic
inactive	Active	Active	Active	CCOC(=O)[C@@H](NC(=O)/C=C\C(=O)N1C/C(=C\c2ccc([N+](=O)[O-])cc2)C(=O)/C(=C/c2ccc([N+](=O)[O-])cc2)C1)C(C)C	220	440	170	–	–	–	–	–
inactive	inactive	Active	Active	CCOC(=O)[C@H](C)NC(=O)/C=C\C(=O)N1C/C(=C\c2ccc([N+](=O)[O-])cc2)C(=O)/C(=C/c2ccc([N+](=O)[O-])cc2)C1	240	580	83	–	–	–	–	–

Further lines, the compound ahead of its results:

Compound	Activity [2]	Activity [3]	Activity [4]	Activity [5]	IC50 [1] [nM]	IC50 (L1210) [nM]	IC50 (CCRF-CEM) [nM]	Activity (Mus musculus [6])	Activity (Mus musculus [7])	Activity (Mus musculus [8])	Activity (Mus musculus [9])	Activity (Mus musculus [10])
C=CC(=O)N1C/C(=C\c2ccc([N+](=O)[O-])cc2)C(=O)/C(=C/c2ccc([N+](=O)[O-])cc2)C1	–	–	–	–	150	–	–	–	–	–	–	–
O=C1/C(=C/c2ccc([N+](=O)[O-])cc2)CNC/C1=C\c1ccc([N+](=O)[O-])cc1	–	–	–	–	8280	32100	–	–	–	–	–	–
CCOC(=O)[C@H](Cc1ccc(O)cc1)NC(=O)/C=C\C(=O)N1C/C(=C\c2ccccc2)C(=O)/C(=C/c2ccccc2)C1	inactive	inactive	Active	inactive	570	4600	350	–	–	–	–	–
CCOC(=O)[C@H](CC(C)C)NC(=O)/C=C\C(=O)N1C/C(=C\c2ccccc2)C(=O)/C(=C/c2ccccc2)C1	inactive	inactive	inactive	inactive	1100	4700	1200	–	–	–	–	–
CCOC(=O)[C@H](Cc1c[nH]c2ccccc12)NC(=O)/C=C\C(=O)N1C/C(=C\c2ccc([N+](=O)[O-])cc2)C(=O)/C(=C/c2ccc([N+](=O)[O-])cc2)C1	Active	Active	Active	Active	270	620	190	–	–	–	–	–
CCOC(=O)[C@H](Cc1ccccc1)NC(=O)/C=C\C(=O)N1C/C(=C\c2ccc([N+](=O)[O-])cc2)C(=O)/C(=C/c2ccc([N+](=O)[O-])cc2)C1	Active	Active	Active	Active	240	200	130	–	–	–	–	–
CCOC(=O)[C@H](Cc1ccc(O)cc1)NC(=O)/C=C\C(=O)N1C/C(=C\c2ccc([N+](=O)[O-])cc2)C(=O)/C(=C/c2ccc([N+](=O)[O-])cc2)C1	inactive	Active	Active	Active	280	600	170	–	–	–	–	–
CCOC(=O)CNC(=O)/C=C\C(=O)N1C/C(=C\c2ccccc2)C(=O)/C(=C/c2ccccc2)C1	inactive	inactive	inactive	inactive	1400	6100	1300	–	–	–	–	–
C=CC(=O)N1C/C(=C\c2ccccc2)C(=O)/C(=C/c2ccccc2)C1	–	–	–	–	1420	–	–	–	–	–	–	–
